Data from patent US20230348376A1 (TEIJIN PHARMA LIMITED, priority 2020, published 2023).

System: rat oligodendrocyte progenitor cells
Assay: Promotive activity of rat oligodendrocyte progenitor cell differentiation-2 (immunostaining of MBP)
Type: cell-based
Settings: vitamin D derivative 2 μM, T3 30 nM, 4 days
Protocol: The promotive activity of oligodendrocyte progenitor cell (OPC) differentiation of the vitamin D derivatives was evaluated by immunostaining of MBP.
Subsequently, oligodendrocyte progenitor cell separation medium was added to the flask, and the mixture was similarly shaken for about 22 hours (37° C., 200 rpm), and the supernatant was collected to prepare oligodendrocyte progenitor cells.

SMILES: C=C1/C(=C\C=C2/CCC[C@]3(C)[C@@H]([C@H](C)CN4CCOC[C@@H]4C4CC4)CC[C@@H]23)C[C@@H](O)C[C@@H]1O [Compound F008, (1R,3 S,Z)-5-(2-((1R,3aS,7aR,E)-1-((S)-1-((S)-3-cyclopropylmorpholino)propan-2-yl)-7a-methyloctahydro-4H-inden-4-ylidene)ethylidene)-4-methylenecyclohexane-1,3-diol]
- Mean (number of MBP-positive cells/number of Hoechst33342-positive cells) (Test 5): 0.45

SMILES: C[C@H](CCN1CCCC[C@@H]1C)[C@H]1CC[C@H]2/C(=C/C=C3C[C@@H](O)C[C@H](O)C3)CCC[C@]12C [Compound G017, (1R,3R)-5-(2-((1R,3aS,7aR,E)-7a-methyl-1-((R)-4-((S)-2-methylpiperidin-1-yl)butan-2-yl)octahydro-4H-inden-4-ylidene)ethylidene)cyclohexane-1,3-diol]
- Mean (number of MBP-positive cells/number of Hoechst33342-positive cells) (Test 6): 0.52

SMILES: C=C1[C@H](O)CC(=C/C=C2\CCC[C@]3(C)[C@@H]([C@H](C)CN4CCCCC4(C)C)CC[C@@H]23)C[C@H]1O [Compound H003, (1R,3R)-5-(2-((1R,3aS,7aR,E)-1-((S)-1-(2,2-dimethylpiperidin-1-yl)propan-2-yl)-7a-methyloctahydro-4H-inden-4-ylidene)ethylidene)-2-methylenecyclohexane-1,3-diol]
- Mean (number of MBP-positive cells/number of Hoechst33342-positive cells) (Test 9): 0.30

SMILES: C=C1/C(=C\C=C2/CCC[C@]3(C)[C@@H]([C@H](C)CN4CCC[C@H]4C(C)(C)OC)CC[C@@H]23)C[C@@H](O)C[C@@H]1O [Compound F016, (1R,3S,Z)-5-(2-((1R,3aS,7aR,E)-1-((S)-1-((S)-2-(2-methoxypropan-2-yl)pyrrolidin-1-yl)propan-2-yl)-7a-methyloctahydro-4H-inden-4-ylidene)ethylidene)-4-methylenecyclohexane-1,3-diol]
- Mean (number of MBP-positive cells/number of Hoechst33342-positive cells) (Test 8): 0.32

SMILES: C[C@H](CN1CCC[C@H]1C(C)(C)O)[C@H]1CC[C@H]2/C(=C/C=C3C[C@@H](O)C[C@H](O)C3)CCC[C@]12C [Compound G014, (1R,3R)-5-(2-((1R,3aS,7aR,E)-1-((S)-1-((S)-2-(2-hydroxypropan-2-yl)pyrrolidin-1-yl)propan-2-yl)-7a-methyloctahydro-4H-inden-4-ylidene)ethylidene)cyclohexane-1,3-diol]
- Mean (number of MBP-positive cells/number of Hoechst33342-positive cells) (Test 6): 0.44

SMILES: COC(C)(C)[C@@H]1CCCN1C[C@@H](C)[C@H]1CC[C@H]2/C(=C/C=C3C[C@@H](O)C[C@H](O)C3)CCC[C@]12C [Compound G016, (1R,3R)-5-(2-((1R,3aS,7aR,E)-1-((S)-1-((S)-2-(2-methoxypropan-2-yl)pyrrolidin-1-yl)propan-2-yl)-7a-methyloctahydro-4H-inden-4-ylidene)ethylidene)cyclohexane-1,3-diol]
- Mean (number of MBP-positive cells/number of Hoechst33342-positive cells) (Test 7): 0.37

SMILES: C=C1/C(=C\C=C2/CCC[C@]3(C)[C@@H]([C@H](C)CN4CCCC[C@@H]4C)CC[C@@H]23)C[C@@H](O)C[C@@H]1O [Compound F001, (1R,3S,Z)-5-(2-((1R,3aS,7aR,E)-7a-methyl-1-((S)-1-((S)-2-methylpiperidin-1-yl)propan-2-yl)octahydro-4H-inden-4-ylidene)ethylidene)-4-methylenecyclohexane-1,3-diol]
- Mean (number of MBP-positive cells/number of Hoechst33342-positive cells) (Test 7): 0.29

SMILES: C=C1[C@H](O)CC(=C/C=C2\CCC[C@]3(C)[C@@H]([C@H](C)CN4CCCC[C@@H]4C)CC[C@@H]23)C[C@H]1O [Compound H001, (1R,3R)-5-(2-((1R,3aS,7aR,E)-7a-methyl-1-((S)-1-((S)-2-methylpiperidin-1-yl)propan-2-yl)octahydro-4H-inden-4-ylidene)ethylidene)-2-methylenecyclohexane-1,3-diol]
- Mean (number of MBP-positive cells/number of Hoechst33342-positive cells) (Test 7): 0.48

SMILES: C=C1[C@H](O)CC(=C/C=C2\CCC[C@]3(C)[C@@H]([C@H](C)CN4CCC[C@@H]4C(C)(C)O)CC[C@@H]23)C[C@H]1O [Compound H013, (1R,3R)-5-(2-((1R,3aS,7aR,E)-1-((S)-1-((R)-2-(2-hydroxypropan-2-yl)pyrrolidin-1-yl)propan-2-yl)-7a-methyloctahydro-4H-inden-4-ylidene)ethylidene)-2-methylenecyclohexane-1,3-diol]
- Mean (number of MBP-positive cells/number of Hoechst33342-positive cells) (Test 8): 0.35

SMILES: C=C1[C@H](O)CC(=C/C=C2\CCC[C@]3(C)[C@@H]([C@H](C)CN4CCN(C)C[C@H]4C)CC[C@@H]23)C[C@H]1O [Compound H012, (1R,3R)-5-(2-((1R,3aS,7aR,E)-1-((S)-1-((R)-2,4-dimethylpiperazin-1-yl)propan-2-yl)-7a-methyloctahydro-4H-inden-4-ylidene)ethylidene)-2-methylenecyclohexane-1,3-diol]
- Mean (number of MBP-positive cells/number of Hoechst33342-positive cells) (Test 7): 0.28

SMILES: C=C1/C(=C\C=C2/CCC[C@]3(C)[C@@H]([C@H](C)CN4CCC[C@@H]4C(C)(C)OC)CC[C@@H]23)C[C@@H](O)C[C@@H]1O [Compound F015, (1R,3S,Z)-5-(2-((1R,3aS,7aR,E)-1-((S)-1-((R)-2-(2-methoxypropan-2-yl)pyrrolidin-1-yl)propan-2-yl)-7a-methyloctahydro-4H-inden-4-ylidene)ethylidene)-4-methylenecyclohexane-1,3-diol]
- Mean (number of MBP-positive cells/number of Hoechst33342-positive cells) (Test 8): 0.35

SMILES: C[C@H](CN1CCOC[C@@H]1C1CC1)[C@H]1CC[C@H]2/C(=C/C=C3C[C@@H](O)C[C@H](O)C3)CCC[C@]12C [Compound G008, (1R,3R)-5-(2-((1R,3aS,7aR,E)-1-((S)-1-((S)-3-cyclopropylmorpholino)propan-2-yl)-7a-methyloctahydro-4H-inden-4-ylidene)ethylidene)cyclohexane-1,3-diol]
- Mean (number of MBP-positive cells/number of Hoechst33342-positive cells) (Test 5): 0.36

SMILES: C=C1/C(=C\C=C2/CCC[C@]3(C)[C@@H]([C@H](C)CN4CCOCC4(C)C)CC[C@@H]23)C[C@@H](O)C[C@H]1O [Compound I006, (1R,3R,Z)-5-(2-((1R,3aS,7aR,E)-1-((S)-1-(3,3-dimethylmorpholino)propan-2-yl)-7a-methyloctahydro-4H-inden-4-ylidene)ethylidene)-4-methylenecyclohexane-1,3-diol]
- Mean (number of MBP-positive cells/number of Hoechst33342-positive cells) (Test 4): 0.51

SMILES: C[C@H](CCN1CCCC[C@H]1C)[C@H]1CC[C@H]2/C(=C/C=C3C[C@@H](O)C[C@H](O)C3)CCC[C@]12C [Compound G018, (1R,3R)-5-(2-((1R,3aS,7aR,E)-7a-methyl-1-((R)-4-((R)-2-methylpiperidin-1-yl)butan-2-yl)octahydro-4H-inden-4-ylidene)ethylidene)cyclohexane-1,3-diol]
- Mean (number of MBP-positive cells/number of Hoechst33342-positive cells) (Test 6): 0.48

SMILES: C[C@H](CN1CCOCC12CC2)[C@H]1CC[C@H]2/C(=C/C=C3C[C@@H](O)C[C@H](O)C3)CCC[C@]12C [Compound G007, (1R,3R)-5-(2-((1R,3aS,7aR,E)-1-((S)-1-(7-oxa-4-azaspiro[2.5]octan-4-yl)propan-2-yl)-7a-methyloctahydro-4H-inden-4-ylidene)ethylidene)cyclohexane-1,3-diol]
- Mean (number of MBP-positive cells/number of Hoechst33342-positive cells) (Test 4): 0.34

SMILES: C=C1/C(=C\C=C2/CCC[C@]3(C)[C@@H]([C@H](C)CN4CCC[C@@H]4C(C)(C)O)CC[C@@H]23)C[C@@H](O)C[C@@H]1O [Compound F013, (1R,3S,Z)-5-(2-((1R,3aS,7aR,E)-1-((S)-1-((R)-2-(2-hydroxypropan-2-yl)pyrrolidin-1-yl)propan-2-yl)-7a-methyloctahydro-4H-inden-4-ylidene)ethylidene)-4-methylenecyclohexane-1,3-diol]
- Mean (number of MBP-positive cells/number of Hoechst33342-positive cells) (Test 9): 0.31

SMILES: COC(C)(C)[C@H]1CCCN1C[C@@H](C)[C@H]1CC[C@H]2/C(=C/C=C3C[C@@H](O)C[C@H](O)C3)CCC[C@]12C [Compound G015, (1R,3R)-5-(2-((1R,3aS,7aR,E)-1-((S)-1-((R)-2-(2-methoxypropan-2-yl)pyrrolidin-1-yl)propan-2-yl)-7a-methyloctahydro-4H-inden-4-ylidene)ethylidene)cyclohexane-1,3-diol]
- Mean (number of MBP-positive cells/number of Hoechst33342-positive cells) (Test 6): 0.52

SMILES: C=C1[C@H](O)CC(=C/C=C2\CCC[C@]3(C)[C@@H]([C@H](C)CN4CCN(C)C[C@@H]4C)CC[C@@H]23)C[C@H]1O [Compound H011, (1R,3R)-5-(2-((1R,3aS,7aR,E)-1-((S)-1-((S)-2,4-dimethylpiperazin-1-yl)propan-2-yl)-7a-methyloctahydro-4H-inden-4-ylidene)ethylidene)-2-methylenecyclohexane-1,3-diol]
- Mean (number of MBP-positive cells/number of Hoechst33342-positive cells) (Test 5): 0.30

SMILES: C=C1[C@H](O)CC(=C/C=C2\CCC[C@]3(C)[C@@H]([C@H](C)CN4CCC[C@H]4C(C)(C)O)CC[C@@H]23)C[C@H]1O [Compound H014, (1R,3R)-5-(2-((1R,3aS,7aR,E)-1-((S)-1-((S)-2-(2-hydroxypropan-2-yl)pyrrolidin-1-yl)propan-2-yl)-7a-methyloctahydro-4H-inden-4-ylidene)ethylidene)-2-methylenecyclohexane-1,3-diol]
- Mean (number of MBP-positive cells/number of Hoechst33342-positive cells) (Test 8): 0.37

SMILES: C=C1/C(=C\C=C2/CCC[C@]3(C)[C@@H]([C@H](C)CN4CCOCC4(C)C)CC[C@@H]23)C[C@@H](O)C[C@@H]1O [Compound F006, (1R,3S,Z)-5-(2-((1R,3aS,7aR,E)-1-((S)-1-(3,3-dimethylmorpholino)propan-2-yl)-7a-methyloctahydro-4H-inden-4-ylidene)ethylidene)-4-methylenecyclohexane-1,3-diol]
- Mean (number of MBP-positive cells/number of Hoechst33342-positive cells) (Test 4): 0.44
